Patent US12036226B2, “Methods of treating subjects having diabetes with chronic kidney disease” (Poxel SA, priority 2018, dated 2024)

Test system: subjects with T2DM and CKD stage 3B or 4
Experiment: Phase 1b 28-day safety, tolerability and PK study in subjects with T2DM and CKD stage 3B or 4
Format: in vivo
Description: An Open Label, Parallel Arm Study to Assess the Safety, Tolerability, and Pharmacokinetics of Imeglimin in Subjects with Type 2 Diabetes Mellitus (T2DM) and Moderate to Severe Chronic Kidney Disease (CKD)
This Phase 1b study is to assess the safety, tolerability and pharmacokinetics (PK) of imeglimin in subjects with T2DM and CKD stage 3B or 4.
Subjects will be randomly allocated to receive one of three treatments or placebo.
Doses which are below the minimally acceptable doses are acceptable if stable for 12 weeks prior to Screening as per prescribing information. […] Primary Outcome Measures […]
Safety can be evaluated by assessment of clinical laboratory tests, physical examinations, vital signs measurements, and ECG readings at various time points during the study, and by the documentation of AEs.
The incidence of treatment-emergent adverse events (TEAE) will be summarized by treatment.
Plasma lactate will be summarized descriptively by absolute value at each visit by treatment group, together with the corresponding changes from baseline.
Pharmacokinetics (PK) data can be descriptively summarized by treatment group. PK parameters will be determined using noncompartmental methods. […] Steady-state can be evaluated using the trough concentration data.

SMILES: C[C@H]1N=C(N(C)C)N=C(N)N1 [imeglimin, (6R)—N^2, N^2,6-trimethyl-3,6-dihydro-1,3,5-triazine-2,4-diamine]
- Subjects with any TEAE (500 mg BID, CKD3b (n = 8)): 2 (25%) n, %
- Subjects with any TEAE by maximum severity: Grade 1 - Mild (500 mg BID, CKD3b (n = 8)): 1 (13%) n, %
- Subjects with any TEAE by maximum severity: Grade 2 - Moderate (500 mg BID, CKD3b (n = 8)): 1 (13%) n, %
- Subjects with any TEAE by maximum severity: Grade 3 - Severe (500 mg BID, CKD3b (n = 8)): 0 n, %
- Subjects with any TEAE by maximum severity: Grade 4 - Life-threatening (500 mg BID, CKD3b (n = 8)): 0 n, %
- Subjects with any TEAE by maximum severity: Grade 5 - Death (500 mg BID, CKD3b (n = 8)): 0 n, %
- Subjects with any study drug related TEAE (500 mg BID, CKD3b (n = 8)): 0 n, %
- Subjects with any study drug related TEAE: Grade 1 - Mild (500 mg BID, CKD3b (n = 8)): 0 n, %
- Subjects with any study drug related TEAE: Grade 2 - Moderate (500 mg BID, CKD3b (n = 8)): 0 n, %
- Subjects with any study drug related TEAE: Grade 3 - Severe (500 mg BID, CKD3b (n = 8)): 0 n, %
- Subjects with any study drug related TEAE: Grade 4 - Life-threatening (500 mg BID, CKD3b (n = 8)): 0 n, %
- Subjects with any study drug related TEAE: Grade 5 - Death (500 mg BID, CKD3b (n = 8)): 0 n, %
- TEAE: Gastrointestinal disorders (500 mg BID, CKD3b (n = 8)): 1 (13%) n, %
- Subjects with any TEAE (500 mg BID, CKD4 (n = 5)): 1 (20%) n, %
- Subjects with any TEAE by maximum severity: Grade 1 - Mild (500 mg BID, CKD4 (n = 5)): 0 n, %
- Subjects with any TEAE by maximum severity: Grade 2 - Moderate (500 mg BID, CKD4 (n = 5)): 1 (20%) n, %
- Subjects with any TEAE by maximum severity: Grade 3 - Severe (500 mg BID, CKD4 (n = 5)): 0 n, %
- Subjects with any TEAE by maximum severity: Grade 4 - Life-threatening (500 mg BID, CKD4 (n = 5)): 0 n, %
- Subjects with any TEAE by maximum severity: Grade 5 - Death (500 mg BID, CKD4 (n = 5)): 0 n, %
- Subjects with any study drug related TEAE (500 mg BID, CKD4 (n = 5)): 0 n, %
- Subjects with any study drug related TEAE: Grade 1 - Mild (500 mg BID, CKD4 (n = 5)): 0 n, %
- Subjects with any study drug related TEAE: Grade 2 - Moderate (500 mg BID, CKD4 (n = 5)): 0 n, %
- Subjects with any study drug related TEAE: Grade 3 - Severe (500 mg BID, CKD4 (n = 5)): 0 n, %
- Subjects with any study drug related TEAE: Grade 4 - Life-threatening (500 mg BID, CKD4 (n = 5)): 0 n, %
- Subjects with any study drug related TEAE: Grade 5 - Death (500 mg BID, CKD4 (n = 5)): 0 n, %
- TEAE: Gastrointestinal disorders (500 mg BID, CKD4 (n = 5)): 0 n, %
- Subjects with any TEAE (1000 mg BID, CKD3b (n = 6)): 4 (67%) n, %
- Subjects with any TEAE by maximum severity: Grade 1 - Mild (1000 mg BID, CKD3b (n = 6)): 2 (33%) n, %
- Subjects with any TEAE by maximum severity: Grade 2 - Moderate (1000 mg BID, CKD3b (n = 6)): 2 (33%) n, %
- Subjects with any TEAE by maximum severity: Grade 3 - Severe (1000 mg BID, CKD3b (n = 6)): 0 n, %
- Subjects with any TEAE by maximum severity: Grade 4 - Life-threatening (1000 mg BID, CKD3b (n = 6)): 0 n, %
- Subjects with any TEAE by maximum severity: Grade 5 - Death (1000 mg BID, CKD3b (n = 6)): 0 n, %
- Subjects with any study drug related TEAE (1000 mg BID, CKD3b (n = 6)): 2 (33%) n, %
- Subjects with any study drug related TEAE: Grade 1 - Mild (1000 mg BID, CKD3b (n = 6)): 1 (17%) n, %
- Subjects with any study drug related TEAE: Grade 2 - Moderate (1000 mg BID, CKD3b (n = 6)): 1 (17%) n, %
- Subjects with any study drug related TEAE: Grade 3 - Severe (1000 mg BID, CKD3b (n = 6)): 0 n, %
- Subjects with any study drug related TEAE: Grade 4 - Life-threatening (1000 mg BID, CKD3b (n = 6)): 0 n, %
- Subjects with any study drug related TEAE: Grade 5 - Death (1000 mg BID, CKD3b (n = 6)): 0 n, %
- TEAE: Gastrointestinal disorders (1000 mg BID, CKD3b (n = 6)): 1 (17%) n, %
- Subjects with any TEAE (1000 mg BID, CKD4 (n = 7)): 4 (57%) n, %
- Subjects with any TEAE by maximum severity: Grade 1 - Mild (1000 mg BID, CKD4 (n = 7)): 2 (29%) n, %
- Subjects with any TEAE by maximum severity: Grade 2 - Moderate (1000 mg BID, CKD4 (n = 7)): 2 (29%) n, %
- Subjects with any TEAE by maximum severity: Grade 3 - Severe (1000 mg BID, CKD4 (n = 7)): 0 n, %
- Subjects with any TEAE by maximum severity: Grade 4 - Life-threatening (1000 mg BID, CKD4 (n = 7)): 0 n, %
- Subjects with any TEAE by maximum severity: Grade 5 - Death (1000 mg BID, CKD4 (n = 7)): 0 n, %
- Subjects with any study drug related TEAE (1000 mg BID, CKD4 (n = 7)): 1 (14%) n, %
- Subjects with any study drug related TEAE: Grade 1 - Mild (1000 mg BID, CKD4 (n = 7)): 1 (14%) n, %
- Subjects with any study drug related TEAE: Grade 2 - Moderate (1000 mg BID, CKD4 (n = 7)): 0 n, %
- Subjects with any study drug related TEAE: Grade 3 - Severe (1000 mg BID, CKD4 (n = 7)): 0 n, %
- Subjects with any study drug related TEAE: Grade 4 - Life-threatening (1000 mg BID, CKD4 (n = 7)): 0 n, %
- Subjects with any study drug related TEAE: Grade 5 - Death (1000 mg BID, CKD4 (n = 7)): 0 n, %
- TEAE: Gastrointestinal disorders (1000 mg BID, CKD4 (n = 7)): 2 (29%) n, %
- Subjects with any TEAE (1500 mg QD, CKD3b (n = 17)): 4 (57%) n, %
- Subjects with any TEAE by maximum severity: Grade 1 - Mild (1500 mg QD, CKD3b (n = 17)): 3 (43%) n, %
- Subjects with any TEAE by maximum severity: Grade 2 - Moderate (1500 mg QD, CKD3b (n = 17)): 1 (14%) n, %
- Subjects with any TEAE by maximum severity: Grade 3 - Severe (1500 mg QD, CKD3b (n = 17)): 0 n, %
